# What was measured:
# [1] = test system: previously untreated metastatic renal cell carcinoma (mRCC); assay: IMmotion150 phase 2 randomized trial: efficacy (PFS, ORR per RECIST v1.1, IRF); type: in vivo, human; details: IRF-assessed
# Method: A phase II clinical study, IMmotion150 (NCT01984242), was performed to evaluate the safety and tolerability of atezolizumab, alone or in combination with bevacizumab, as compared to sunitinib in patients with previously untreated metastatic renal cell carcinoma (mRCC). Integrated tumor genomic analyses were also performed to correlate molecular biomarkers with observed clinical outcomes in the phase II study.
# The primary objective of this phase 2 trial was to evaluate the efficacy of atezolizumab+bevacizumab and atezolizumab monotherapy compared with sunitinib.
# The original primary endpoint was PFS per Response Evaluation Criteria In Solid Tumors version 1.1 (RECIST v1.1) via IRF in the ITT population. Although patients were stratified by ≥5% PD-L1 expression on IC, the definition of PD-L1 positivity was revised from ≥5% to ≥1% PD-L1 expression on IC, based on phase 1a data, and the study protocol was amended to create PD-L1 expression on IC as a coprimary endpoint of IRF-assessed PFS. […] Secondary endpoints included investigator (INV)-assessed PFS, ORR, and duration of response (DOR) per RECIST v1.1, overall survival (OS), patient-reported outcomes, and safety. Key exploratory objectives included evaluation of the relationship between the expression of predictive and prognostic exploratory biomarkers and their association with disease status and efficacy as defined by ORR and PFS.
# During the study, each cycle was six weeks (42 days) in duration, and data on tumor measurement and survival status were collected for evaluation of PFS, milestone PFS (at 24, 52, and 76 weeks), OS, and ORR per RECIST v1.1. Tumor assessments occurred at baseline and every 12 weeks ±five business days after Cycle 1, Day 1, or more frequently if clinically indicated. Patients who discontinued first-line treatment or crossover treatment were followed up for survival approximately every three months until death, withdrawal of consent, loss to follow-up, or study termination. Patients who discontinued study treatment for reasons other than disease progression (e.g., toxicity) continued to undergo scheduled tumor assessments (every 12 weeks) until death, disease progression per RECIST v1.1, withdrawal of consent, or study termination, whichever occurred first.
# Kaplan-Meier methodology was used to estimate the median PFS for each treatment arm, and Kaplan-Meier curves were produced. The primary analysis was triggered when 140 INV-PFS events occurred among patients treated with atezolizumab+bevacizumab and with sunitinib or among patients treated with atezolizumab alone and with sunitinib, whichever occurred later. The HR estimates and their 95% CIs were determined by using the stratified Cox proportional hazards model. The stratification factors included prior nephrectomy, tumor PD-L1 status, and MSKCC score and were determined based on data from the electronic case report form; if such data were missing, data collected by the IxRS at the time of randomization were used. Tumor specimens were prospectively tested for PD-L1 expression on ICs by a central laboratory using the SP142 IHC assay (VENTANA, Tucson, Ariz.). IC staining was defined as follows: any discernible PD-L1 staining of any intensity in IC covering <1% or absent (ICO), between ≥1% and <5% (IC1), between ≥5% and <10% (IC2), or ≥10% (IC3) of tumor area occupied by tumor cells, associated intratumoral, and contiguous peri-tumoral desmoplastic stroma.
# [2] = IMmotion150 phase 2 randomized trial: safety (adverse events); details: for AEs leading to death: events: footnote a of Table 23; for Arthralgia / Constipation / Cough / Decreased appetite / Diarrhea / Dysgeusia / Epistaxis / Fatigue / Headache / Hypertension / Infections and infestations / Mucosal inflammation / Nausea / Palmar-plantar erythrodysesthesia syndrome / Proteinuria / Pruritus / Pyrexia / Rash / Stomatitis / Vomiting: AEs occurring in ≥20% of patients in any arm; for Treatment-related AE: all grade;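 for all read-outs here: Open-label multicenter randomized phase 2 trial with three treatment arms, safety set restricted to patients who actually received study drug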
# Method: Study treatment consisted of atezolizumab 1200 mg fixed intravenous dose +bevacizumab 15 mg/kg every three weeks, atezolizumab 1200 mg fixed intravenous dose every three weeks, or sunitinib 50 mg/day orally for four weeks followed by two weeks of rest. On disease progression (as assessed by the investigator per RECIST v1.1), patients randomized to atezolizumab monotherapy or sunitinib had the option to cross over and receive the atezolizumab+bevacizumab combination in some regions (option was not available in Europe). In the absence of unacceptable toxicity, treatment with the combination continued until evidence of progressive disease. Where permitted, patients in the atezolizumab-containing arms could continue to be treated beyond disease progression per RECIST v1.1 until lack of clinical benefit; those in non-European nations could cross over to atezolizumab+bevacizumab therapy at any time after disease progression per RECIST v1.1, provided all eligibility criteria were met.
# [3] = PD-L1+ population (≥1% PD-L1 expression on IC)
# [4] = AE of special interest, All Grade
# [5] = AE of special interest, Grade 3/4
compound,measurement,setting,value
"Atezo: anti-PD-L1 antibody atezolizumab (CAS Registry Number: 1422185-06-5), Genentech, also known as MPDL3280A",Stratified PFS HR (95% CI) vs sunitinib,[1]; ITT population,1.19
same,complete response (CR),[1]; ITT population,11%
same,median progression-free survival (PFS),[1]; ITT population,6.1 months
same,objective response rate (ORR),[1]; ITT population,25%
same,partial response (PR),[1]; ITT population,14%
same,Stratified PFS HR (95% CI) vs sunitinib,"[1]; PD-L1+ (PD-L1 IHC IC1/2/3, ≥1%)",1.03
same,complete response (CR),[1]; PD-L1+ patients,15%
same,objective response rate (ORR),[1]; PD-L1+ patients,28%
same,partial response (PR),[1]; PD-L1+ patients,13%
same,median progression-free survival (PFS),[1]; [3],5.5 months
same,Stratified PFS HR (95% CI) vs sunitinib,[1]; PD-L1 IHC IC2/3 (≥5%),0.64
same,AEs leading to death,[2]; % of patients,(2%)
same,AEs leading to death: events,[2],"hematophagic hitiocytosis, lower respiratory tract infection"
same,AEs leading to death,[2]; number of patients,2 n
same,Treatment-related AEs leading to death,[2]; number of patients,0 n
"CCN(CC)CCNC(=O)c1c(C)[nH]c(/C=C2\C(=O)Nc3ccc(F)cc32)c1C [Sunitinib, N-[2-(Diethylamino)ethyl]-5-[(Z)-(5-fluoro-2-oxo-1,2-dihydro-3H-indol-3-ylidene)methyl]-2,4-dimethyl-1H-pyrrole-3-carboxamide]",complete response (CR),[1]; ITT population,5%
same,median progression-free survival (PFS),[1]; ITT population,8.4 months
same,objective response rate (ORR),[1]; ITT population,29%
same,partial response (PR),[1]; ITT population,24%
same,complete response (CR),[1]; PD-L1+ patients,7%
same,objective response rate (ORR),[1]; PD-L1+ patients,27%
same,partial response (PR),[1]; PD-L1+ patients,20%
same,median progression-free survival (PFS),[1]; [3],7.8 months
same,AEs leading to death,[2]; % of patients,(2%)
same,AEs leading to dose modification or interruption,[2]; % of patients,(70%)
same,AEs leading to withdrawal from treatment,[2]; % of patients,(10%)
same,"Grade 3/4 AEs, any cause",[2]; % of patients,(69%)
same,Treatment-related AEs leading to death,[2]; % of patients,(2%)
same,Treatment-related AEs leading to withdrawal from treatment,[2]; % of patients,(9%)
same,Treatment-related grade 3/4 AEs,[2]; % of patients,(57%)
same,Treatment-related AEs leading to withdrawal from treatment,"[2]; % of patients, listed as sunitinib",9%
same,Decreased blood cortisol/adrenal insufficiency,[2]; [4],0 n
same,Pneumonitis,[2]; [4],0 n
same,Colitis,[2]; [5],0 n
same,Decreased blood cortisol/adrenal insufficiency,[2]; [5],0 n
same,Pneumonitis,[2]; [5],0 n
same,TSH decreased/hypothyroidism,[2]; [5],0 n
same,TSH increased/hyperthyroidism,[2]; [5],0 n
same,Arthralgia,[2],(18.0%)
same,Constipation,[2],(30.0%)
same,Cough,[2],(25.0%)
same,Decreased appetite,[2],(29.0%)
same,Diarrhea,[2],(59.0%)
same,Dysgeusia,[2],(30.0%)
same,Epistaxis,[2],(12.0%)
same,Fatigue,[2],(70.0%)
same,Headache,[2],(23.0%)
same,Hypertension,[2],(35.0%)
same,Infections and infestations,[2],(32.0%)
same,Mucosal inflammation,[2],(33.0%)
same,Nausea,[2],(45.0%)
same,Palmar-plantar erythrodysesthesia syndrome,[2],(40.0%)
same,Proteinuria,[2],(9.0%)
same,Pruritus,[2],(10.0%)
same,Pyrexia,[2],(12.0%)
same,Rash,[2],(13.0%)
same,Stomatitis,[2],(25.0%)
same,Vomiting,[2],(20.0%)
same,Arthralgia,[2]; number of patients,18
same,Constipation,[2]; number of patients,30
same,Cough,[2]; number of patients,25
same,Decreased appetite,[2]; number of patients,29
same,Diarrhea,[2]; number of patients,59
same,Dysgeusia,[2]; number of patients,30
same,Epistaxis,[2]; number of patients,12
same,Fatigue,[2]; number of patients,70
same,Headache,[2]; number of patients,23
same,Hypertension,[2]; number of patients,35
same,Infections and infestations,[2]; number of patients,32
same,Mucosal inflammation,[2]; number of patients,33
same,Nausea,[2]; number of patients,45
same,Palmar-plantar erythrodysesthesia syndrome,[2]; number of patients,40
same,Proteinuria,[2]; number of patients,9
same,Pruritus,[2]; number of patients,10
same,Pyrexia,[2]; number of patients,12
same,Rash,[2]; number of patients,13
same,Stomatitis,[2]; number of patients,25
same,Vomiting,[2]; number of patients,20
same,Treatment-related AE,[2]; % of patients,(96%)
same,Treatment-related AE,[2]; number of patients,96 n
same,AEs leading to death: events,[2],"sudden death (related), intestinal hemorrhage (related)"
same,related AE leading to treatment discontinuation: increased blood creatinine,[2]; in vivo,2%
same,related AE leading to treatment discontinuation: palmar-plantar erythrodysesthesia syndrome,[2]; in vivo,2%
same,AEs leading to death,[2]; number of patients,2 n
same,AEs leading to dose modification or interruption,[2]; number of patients,70 n
same,AEs leading to withdrawal from treatment,[2]; number of patients,10 n
same,"All-grade AEs, any cause",[2]; number of patients,99 n
same,"Grade 3/4 AEs, any cause",[2]; number of patients,69 n
same,Treatment-related AEs leading to death,[2]; number of patients,2 n
same,Treatment-related AEs leading to withdrawal from treatment,[2]; number of patients,9 n
same,Treatment-related grade 3/4 AEs,[2]; number of patients,57 n
